{"source": "paper PMC6208296", "about": "“Redox regulation of pyruvate kinase M2 by cysteine oxidation and S-nitrosation” (Biochemical Journal, 2018)", "type_in_all_cases": "biochemical", "key": {"M2PYK [1]": {"target": "T1, M2PYK (Homo sapiens, UniProt P14618)", "T1 construct": "gene PKM; recombinant His-tagged WT M2 isoform", "T1 sequence (P14618 2-531)": "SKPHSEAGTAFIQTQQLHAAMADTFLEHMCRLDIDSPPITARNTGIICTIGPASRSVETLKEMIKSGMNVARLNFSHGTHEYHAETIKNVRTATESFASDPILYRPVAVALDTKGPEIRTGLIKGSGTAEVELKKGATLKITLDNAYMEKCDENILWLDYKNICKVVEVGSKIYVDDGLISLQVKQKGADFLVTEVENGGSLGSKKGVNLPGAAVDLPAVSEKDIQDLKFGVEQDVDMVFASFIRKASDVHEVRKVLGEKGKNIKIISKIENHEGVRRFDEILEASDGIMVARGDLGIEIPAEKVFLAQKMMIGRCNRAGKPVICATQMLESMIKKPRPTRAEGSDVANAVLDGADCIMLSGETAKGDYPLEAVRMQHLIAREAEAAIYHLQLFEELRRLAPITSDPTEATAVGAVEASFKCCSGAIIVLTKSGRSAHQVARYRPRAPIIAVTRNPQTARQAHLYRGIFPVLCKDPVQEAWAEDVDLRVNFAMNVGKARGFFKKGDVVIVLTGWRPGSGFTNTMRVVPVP", "test": "PYK enzyme activity assay, dose response with and without DTT and Ser"}, "M2PYK [2]": {"target": "T1, M2PYK", "test": "enzyme activity assay, competition of activator Ser with inhibitors Ala and Phe"}, "M2PYK [3]": {"target": "T1, M2PYK", "test": "LDH-coupled enzyme assay with and without F-1,6-BP; protection from S-nitrosation (biotin switch)"}}, "note": "Read-outs that look alike come from different tables or passages of the source."}
{"smiles": "N[C@@H](Cc1ccccc1)C(=O)O", "note": "[L-phenylalanine]", "values": [{"measurement": "IC50", "setting": "M2PYK [1]", "value": 57, "unit": "µM"}]}
{"smiles": "N[C@@H](CO)C(=O)O", "note": "[Ser]", "values": [{"measurement": "enzyme activity assay, competition of activator Ser with inhibitors Ala and Phe", "setting": "M2PYK [2]", "value": "Increasing Ser concentration further reduces the inhibitory effect of Ala which is expected as Ala and Ser compete"}]}
{"smiles": "C[C@H](N)C(=O)O", "note": "[L-alanine]", "values": [{"measurement": "IC50", "setting": "M2PYK [1]; read-out: IC50", "value": 45, "unit": "µM"}]}
{"smiles": "O=P(O)(O)OC[C@H]1OC(O)(COP(=O)(O)O)[C@@H](O)[C@@H]1O", "note": "(stereo partly shown) [fructose 1,6-bisphosphate]", "values": [{"measurement": "LDH-coupled enzyme assay with and without F-1,6-BP; protection from S-nitrosatio", "setting": "M2PYK [3]", "value": "M2PYK complexes with FBP and Phe stabilise M2PYK in a tetrameric state and reduce the amount of nitrosation"}]}
